Measurements: ChEMBL document CHEMBL6114999, “Natural pyrrolo[1,2-a]quinazolinone derivatives: Design, synthesis, characterization, and bio-evaluation as novel antiviral agents” (Eur J Med Chem, 2025)
The source made the active and inactive calls. No cut-off for these calls is given here.

Experiments:
Enterovirus [1] = test: Antiviral activity against EV71 infected in human RD cells assessed as protection from virus-induced cytopathogenicity incubated for 48 hrs by MTT assay; assay type: functional, organism-based; conditions: Enterovirus, 71, RD
Enterovirus [2] = test: Antiviral activity against EV71 infected in human RD cells assessed as inhibition of virus-induced cell death at 100 uM incubated for 48 hrs by MTT assay relative to control; assay type: functional, 71; conditions: for inhibition at 100 µM: Enterovirus, 71, RD
Coxsackievirus B3 [3] = test: Antiviral activity against CVB3 infected in HEp-2 cells assessed as protection from virus-induced cytopathogenicity incubated for 48 hrs by MTT assay; assay type: functional, organism-based; conditions: Enterovirus B, HEp-2, 48 h
Enterovirus [4] = test: Antiviral activity against EV71 infected in human RD cells assessed as inhibition of virus-induced cell death at 25 uM incubated for 48 hrs by MTT assay relative to control; assay type: functional; conditions: Enterovirus, 71, RD
Enterovirus [5] = test: Antiviral activity against EV71 infected in human RD cells assessed as protection from virus-induced cytopathogenicity by measuring reduction in progeny virus titer incubated for 48 hrs by MTT assay; assay type: functional, 71
HEp-2 = test: Inhibition of morphological changes in HEp-2 cells infected with CVB3 assessed as reduction in cytopathic effect at 50 to 100 uM measured after 48 hrs by Reed-Muench method; assay type: functional, cell-based; conditions: Coxsackievirus B3, dose 50-100 µM
Coxsackievirus B3 [6] = test: Antiviral activity against CVB3 infected in HEp-2 cells assessed as inhibition of virus-induced cell death at 100 uM incubated for 48 hrs by MTT assay relative to control; assay type: functional; conditions: for inhibition at 100 µM: Enterovirus B, HEp-2, 48 h
Enterovirus [7] = test: Antiviral activity against EV71 infected in human RD cells assessed as cell viability at 100 uM pre-infected with virus followed by compound treatment measured after 48 hrs post-infection by MTT assay relative to control; assay type: functional, 71
Enterovirus [8] = test: Inhibition of EV71 3Dpol assessed as decrease in RNA chain extension by polyacrylamide gel electrophoresis; conditions: 71
Coxsackievirus B3 [9] = test: Antiviral activity against CVB3 infected in HEp-2 cells assessed as inhibition of virus-induced cell death at 25 uM incubated for 48 hrs by MTT assay relative to control; assay type: functional; conditions: Enterovirus B
Enterovirus [10] = test: Inhibition of EGFP-fused EV71 2Apro transfected in host cells co-expressing FLuc assessed as reduction in firefly luciferase activity incubated for 24 to 36 hrs by chemiluminescence analysis; assay type: cell-based; conditions: 71, time 24-36 hrs
Enterovirus [11] = test: Antiviral activity against EV71 infected in human RD cells assessed as inhibition of virus-induced cell death at 25 to 100 uM incubated for 48 hrs by MTT assay; assay type: functional, organism-based; conditions: 71, dose 25-100 µM
Coxsackievirus B3 [12] = test: Antiviral activity against CVB3 infected in HEp-2 cells assessed as protection from virus-induced cytopathogenicity by measuring reduction in progeny virus titer incubated for 48 hrs by MTT assay; assay type: functional
Enterovirus [13] = test: Antiviral activity against EV71 infected in human RD cells assessed as viral infection in cell at 100 uM incubated for 46.5 hrs by fluorescence microscopy (reference value: 80.67 %); assay type: functional, 71
Enterovirus [14] = test: Antiviral activity against EV71 infected in human RD cells assessed as viral infection in cell at 50 uM incubated for 46.5 hrs by fluorescence microscopy (reference value: 80.67 %); assay type: functional, 71
Coxsackievirus B3 [15] = test: Antiviral activity against CVB3 infected in HEp-2 cells assessed as inhibition of virus-induced cell death at 50 uM incubated for 48 hrs by MTT assay relative to control; assay type: functional; conditions: Enterovirus B
Enterovirus [16] = test: Antiviral activity against EV71 infected in human RD cells assessed as increase in cell viability at 3.125 to 100 uM incubated with compound and virus measured after 48 hrs by MTT assay; assay type: functional, organism-based; conditions: 71, dose 3.125-100 µM
Enterovirus [17] = test: Antiviral activity against EV71 infected in human RD cells assessed as inhibition of viral RNA synthesis at 100 uM incubated for 32 hrs by qRT-PCR analysis; assay type: functional, organism-based; conditions: 71
Enterovirus [18] = test: Antiviral activity against EV71 infected in human RD cells assessed as reduction in viral protein translation at 100 uM incubated for 32 hrs by immunofluorescence analysis; assay type: functional, organism-based; conditions: 71
Coxsackievirus B3 [19] = test: Antiviral activity against CVB3 infected in HEp-2 cells assessed as inhibition of virus-induced cell death at 25 to 100 uM incubated for 48 hrs by MTT assay; assay type: functional, organism-based; conditions: dose 25-100 µM
Enterovirus [20] = test: Antiviral activity against EV71 infected in human RD cells assessed as log reduction in viral replication at 100 uM incubated for 4 to 32 hrs by […] method; assay type: functional, 71; conditions: time 4-32 hrs
Enterovirus [21] = test: Virucidal activity against EV71 infected in human RD cells at 100 uM pretreated compound with virus followed by inoculation of mixture into host cells measured after 2 days by Reed-Muench method; assay type: functional, organism-based; conditions: 71, time 2.0 day
[22] = Selectivity index, ratio of CC50 for cytotoxicity against HEp-2 cells to EC50 for antiviral activity against CVB3 infected in HEp-2 cells; assay type: toxicity, cell-based; conditions: human, read-out: Ratio CC50/EC50
Enterovirus [23] = test: Antiviral activity against EV71 infected in human RD cells assessed as inhibition of virus-induced cell death at 50 uM incubated for 48 hrs by MTT assay relative to control; assay type: functional; conditions: Enterovirus, 71, RD
[24] = Cytotoxicity against human RD cells incubated for 48 hrs by MTT assay; assay type: toxicity, cell-based
Enterovirus [25] = test: Antiviral activity against EV71 infected in human RD cells assessed as increase in cell viability at 3.125 to 100 uM preincubated with compound followed by viral infection measured after 48 hrs by MTT assay; assay type: functional, organism-based; conditions: 71, dose 3.125-100 µM
[26] = Cytotoxicity against human HEp-2 cells incubated for 48 hrs by MTT assay; assay type: toxicity, cell-based
[27] = Selectivity index, ratio of CC50 for cytotoxicity against human RD cells to EC50 for antiviral activity against EV71 infected in human RD cells; assay type: toxicity, cell-based; conditions: read-out: Ratio CC50/EC50
RD = test: Inhibition of morphological changes in human RD cells infected with EV71 assessed as reduction in cytopathic effect at 50 to 100 uM measured after 48 hrs by Reed-Muench method; assay type: functional, cell-based; conditions: Enterovirus, 71, dose 50-100 µM
Enterovirus [28] = test: Antiviral activity against EV71 infected in human RD cells assessed as inhibition of virus-induced cell death at 200 uM incubated for 48 hrs by MTT assay; assay type: functional, organism-based; conditions: 71
Coxsackievirus B3 [29] = test: Antiviral activity against CVB3 infected in HEp-2 cells assessed as inhibition of virus-induced cell death at 200 uM incubated for 48 hrs by MTT assay; assay type: functional, organism-based

In the case of `CN1C(=O)c2ccccc2N2C(=O)CCC12C(=O)NCCc1c[nH]c2ccccc12` (configuration not stated), the EC50 (Enterovirus [1]) is reported as 14.8 µM, the inhibition at 100 µM (Enterovirus [2]) is reported as 62.3% and the EC50 (Coxsackievirus B3 [3]) is reported as 82 µM. The inhibition at 25 µM (Enterovirus [4]) was 33%, the “log(activity)” value (Enterovirus [5]) was ~2.73 and the inhibition (HEp-2) was “Active; Compound Successfully Protected Host Cells From Pathological Changes Or Apoptosis”. For the same molecule, the inhibition at 100 µM (Coxsackievirus B3 [6]) was 54.4%, the Activity (Enterovirus [7]) was >80% and the inhibition (Enterovirus [8]) was “inactive”. The inhibition at 25 µM (Coxsackievirus B3 [9]) was 24.2%, the inhibition (Enterovirus [10]) was “Active” and the inhibition (Enterovirus [11]) was “Active”. The “log(activity)” value (Coxsackievirus B3 [12]) was ~4.03, the Activity (Enterovirus [13]) was 5.34% and the Activity (Enterovirus [14]) was 22.66%. The inhibition at 50 µM (Coxsackievirus B3 [15]) was 40.8%, the Activity (Enterovirus [16]) was “inactive” and the inhibition (Enterovirus [17]) was “Active”. The Activity (Enterovirus [18]) was “Active”, the “antiviral activity call (active/inactive)” value (Coxsackievirus B3 [19]) was “Active” and the “log(activity)” value (Enterovirus [20]) was 3.25. The Activity (Enterovirus [21]) was “inactive”, the selectivity ratio [22] was 2.6 and the inhibition at 50 µM (Enterovirus [23]) was 56.7%. For the same molecule, the CC50 at 48 h [24] was 265 µM, the Activity (Enterovirus [25]) was “inactive” and the CC50 at 48 h [26] was 217 µM. The selectivity ratio [27] was 17.9 and the inhibition (RD) was “Active; Compound Successfully Protected Host Cells From Pathological Changes Or Apoptosis”.

In the case of `CN1C(=O)c2ccccc2N2C(=O)CCC12C(=O)O` (configuration not stated), the EC50 (Coxsackievirus B3 [3]) is reported as 152 µM, the inhibition (Enterovirus [28]) is reported as “inactive” and the inhibition (Coxsackievirus B3 [29]) is reported as “Active; Compared To Ribavirin The Antiviral Effect Is Comparable Or Slightly Inferior”. For the same molecule, the selectivity ratio [22] was 1.8, the CC50 at 48 h [24] was 327 µM and the CC50 at 48 h [26] was 276 µM.

In the case of `O=C1NC2(C(=O)O)CCC(=O)N2c2ccccc21` (configuration not stated), the EC50 (Coxsackievirus B3 [3]) is reported as 143 µM, the inhibition (Enterovirus [28]) is reported as “inactive” and the inhibition (Coxsackievirus B3 [29]) is reported as “Active; Compared To Ribavirin The Antiviral Effect Is Comparable Or Slightly Inferior”. For the same molecule, the selectivity ratio [22] was 2.1, the CC50 at 48 h [24] was 323 µM and the CC50 at 48 h [26] was 296 µM.

With `NC(=O)c1ncn([C@@H]2O[C@H](CO)[C@@H](O)[C@H]2O)n1` [RIBAVIRIN] the EC50 (Enterovirus [1]) was 40.4 µM, the Imax (Enterovirus [2]) was 62.33% and the inhibition at 100 µM (Enterovirus [2]) was 69.7%. For the same molecule, the EC50 (Coxsackievirus B3 [3]) was 24.7 µM, the inhibition at 25 µM (Enterovirus [4]) was 53.8% and the “log(activity)” value (Enterovirus [5]) was 2.3. For the same molecule, the Imax (Coxsackievirus B3 [6]) was 71%, the inhibition at 100 µM (Coxsackievirus B3 [6]) was 71% and the inhibition at 25 µM (Coxsackievirus B3 [9]) was 47.3%. The “log(activity)” value (Coxsackievirus B3 [12]) was 3.07, the inhibition at 50 µM (Coxsackievirus B3 [15]) was 60.7% and the selectivity ratio [22] was 8.2. It also gave an inhibition at 50 µM (Enterovirus [23]) of 61.1%, a CC50 at 48 h [24] of 267 µM and a CC50 at 48 h [26] of 204 µM. The selectivity ratio [27] was 6.6.

Molecule `COC(=O)C(Cc1c[nH]c2ccccc12)NC(=O)C12CCC(=O)N1c1ccccc1C(=O)N2C` (configuration not stated) has an EC50 (Enterovirus [1]) of 28.7 µM, an inhibition at 100 µM (Enterovirus [2]) of 78% and an EC50 (Coxsackievirus B3 [3]) of 66.2 µM. For the same molecule, the inhibition at 25 µM (Enterovirus [4]) was 55.7%, the inhibition at 100 µM (Coxsackievirus B3 [6]) was 63.7% and the inhibition at 25 µM (Coxsackievirus B3 [9]) was 27.1%. The inhibition (Enterovirus [11]) was “Active”, the inhibition at 50 µM (Coxsackievirus B3 [15]) was 40.3% and the “antiviral activity call (active/inactive)” value (Coxsackievirus B3 [19]) was “Active”. The selectivity ratio [22] was 3.1, the inhibition at 50 µM (Enterovirus [23]) was 65.7% and the CC50 at 48 h [24] was 282 µM. For the same molecule, the CC50 at 48 h [26] was 202 µM and the selectivity ratio [27] was 9.8.

With `O=C1NC2(C(=O)O)CCC(=O)N2c2ccc(Cl)cc21` (configuration not stated) the EC50 (Coxsackievirus B3 [3]) was 142 µM, the inhibition (Enterovirus [28]) was “inactive” and the inhibition (Coxsackievirus B3 [29]) was “Active; Compared To Ribavirin The Antiviral Effect Is Comparable Or Slightly Inferior”. For the same molecule, the selectivity ratio [22] was 1.7, the CC50 at 48 h [24] was 317 µM and the CC50 at 48 h [26] was 245 µM.
